This note sets out measurements from PubChem BioAssay (NCI).

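These data come from cells grown in 96-well plates and exposed to compound for 48 hours at five concentrations. GI50: concentration for 50% inhibition of growth. TGI: total growth inhibition.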

Holding throughout (test): DTP human tumour cell line panel, 48 h
Assay [1] concerns SW-620 colon.
The test system of assay [2] is HOP-62 NSCLC.
Assay [3] deals with LOX IMVI melanoma.
Assay [4] has as its system SK-MEL-28 melanoma.
Assay [5] relates to A498 renal.
Assay [6] deals with PC-3 prostate.
Assay [7] deals with OVCAR-5 ovarian.
Assay [8] deals with SK-OV-3 ovarian.
In assay [9] the test system is HCT-15 colon.
Assay [10] relates to U251 CNS.

Regarding `COC(=O)C1=C(C(=O)OC)SC(=C2SCSC3=C2SC(C(=O)OC)=C(C(=O)OC)C32SC3=C(CCCC3)S2)S1`, the TGI in [1], in assay [2], in [3], in assay [4], in assay [5] and in assay [6] was greater than 100 µM in each case. The TGI in assay [7], in [8], in assay [9] and in assay [10] was greater than 100 µM throughout.
Take `CC(=O)/C=C/C1=C(C)CCCC1(C)CC(C)C` (stereo not given): the TGI (in general, the concentration giving total growth inhibition) in assay [1] was 44.1 µM; in assay [2] it was greater than 100 µM; in assay [3] it was 39.9 µM; in assay [4], greater than 100 µM; in assay [5] it was greater than 100 µM; in [6] it was greater than 100 µM. Further, the concentration for total growth inhibition (TGI) in assay [7] was greater than 100 µM; in [8] it was greater than 100 µM; in assay [9], 30.9 µM; in assay [10] it was 86.7 µM.
Consider `CCOC(=O)Nc1sc2c(c1C#N)CCCC2`, for which the TGI in assay [1], in [2], in assay [3], in assay [4], in assay [5] and in [6] was greater than 100 µM each time. Also, the TGI in assay [7], in assay [8], in assay [9] and in assay [10] was greater than 100 µM each time.
For `NC1(c2cc3ccccc3s2)CCCC1`, the TGI in assay [1] is greater than 100 µM; in [2], greater than 100 µM; in [3], greater than 100 µM; in assay [4], 48.1 µM; in [5] it was greater than 100 µM; in assay [6] it was 81.4 µM. Moreover, the TGI in assay [7], in [8], in assay [9] and in [10] was greater than 100 µM in each case.
For `CCOP(=O)(OCC)C(F)(F)c1ccc(CC(NC(=O)OC(C)(C)C)C(=O)O)cc1` (stereo not given), the TGI in assay [1], in [2], in assay [3], in assay [4], in assay [5] and in assay [6] was greater than 10 µM in each case. Moreover, the TGI in assay [7], in [8], in assay [9] and in [10] was greater than 10 µM each time.
As to `O=S(=O)(c1ccccc1)c1cccc2c1NCCC2`, the TGI in [1], in [2], in [3], in assay [4], in assay [5] and in [6] was greater than 100 µM each time. In addition, the TGI in assay [7] is greater than 100 µM; in assay [8], greater than 10 µM; in assay [9], greater than 100 µM.
Turning to `CCN(CC)C(=S)N/N=C/c1cc([N+](=O)[O-])ccc1O`, the TGI was greater than 100 µM in assay [1]; greater than 100 µM in assay [2]; 18.5 µM in assay [3]; greater than 100 µM in [4]; 7.47 µM in assay [5]; 78 µM in [6]. Further, the TGI in assay [7] is greater than 100 µM; in assay [8], 16.3 µM; in assay [9] it was 31.6 µM; in assay [10], greater than 100 µM.
On to `CC(=O)N1C(C(=O)NC2CCCCC2)CSC1c1ccccc1` (stereo not given), for which the TGI in [1], in assay [2], in assay [3], in assay [5], in assay [6] and in assay [7] was greater than 100 µM in each case. For the same compound, the TGI in assay [8], in assay [9] and in assay [10] was greater than 100 µM throughout.
Turning to `Cc1ccccc1C(=N)c1ccccc1Cc1cccc2ccccc12`, the TGI in assay [1] is 66 µM; in assay [2] it was 43.5 µM; in assay [3], 31.9 µM; in assay [4], 54.1 µM; in assay [5] it was 95 µM; in assay [6], greater than 100 µM. Further, the TGI in assay [7] is greater than 100 µM; in assay [8], 98.9 µM; in [9] it was 56.1 µM; in assay [10], 33.9 µM.
Turning to `O=C(/C=C/c1ccc2c(c1)OCO2)c1ccc(O)cc1`, the TGI in assay [1] is 26.3 µM; in assay [2], 66.1 µM; in [3], 24.8 µM; in assay [4], 41.1 µM; in assay [5], 38.3 µM; in assay [6] it was 29.4 µM. For the same compound, the TGI in [7] turned out to be 35.1 µM; in assay [8] it was 35.1 µM; in assay [9], 27.5 µM; in assay [10] it was 26.9 µM.
In the case of `C(=C(c1ccc(OC2CCCCO2)cc1)c1ccc(OC2CCCCO2)cc1)c1ccccc1` (stereo not given), the TGI is 1.62 µM in assay [1]; 2.3 µM in [2]; 1.14 µM in [3]; 2.41 µM in assay [4]; 2.64 µM in assay [5]; 1.59 µM in [6]. Moreover, the TGI worked out at 2.25 µM in [7], 2.64 µM in assay [8] and 2.34 µM in assay [10].
With `CC1=Nc2ccccc2OC(C)=C1N=Nc1ccc2nc(C)[nH]c2c1`, the TGI in assay [1] was greater than 100 µM; in assay [2], greater than 100 µM; in [3], greater than 100 µM; in assay [4], greater than 100 µM; in assay [5], 99.5 µM; in assay [6], greater than 100 µM. The TGI in assay [7], in assay [8], in assay [9] and in assay [10] was greater than 100 µM each time.
Consider `[N-]=[N+]=NC(c1ccccc1)(c1ccccc1)c1ccccc1`, for which the TGI in assay [1] came out at 40.5 µM; in assay [2], 42.2 µM; in assay [3], 45.3 µM; in assay [4], 37.8 µM; in assay [5], 31.9 µM; in assay [6], 29.4 µM. The total growth inhibition concentration (TGI) in [7] was 30.1 µM; in assay [8], greater than 100 µM; in [9], 40.5 µM; in assay [10], 29.2 µM.
For the compound `CCOC(=O)c1c(CN2CCCC2)n(-c2ccccc2)c2cc(Br)c(O)cc12`, the TGI in assay [1] is 42.5 µM; in assay [2], 26.7 µM; in [3], 29.8 µM; in assay [4], 29.7 µM; in assay [5], 30.6 µM; in assay [6] it was 48.5 µM. Besides, the TGI was found to be 36.5 µM in assay [7], 66.5 µM in assay [8], 40.5 µM in assay [9] and 30.4 µM in assay [10].
As for `O=C(/C=C/c1ccccc1)C[C@@H](O)C[C@@H]1CC=CC(=O)O1`, the TGI worked out at 5.53 µM in [1]; 33.7 µM in assay [2]; 7.02 µM in [3]; 24.9 µM in assay [4]; 30.9 µM in assay [5]; 31.8 µM in assay [6]. The TGI was 36.4 µM in [7], 38.7 µM in [8], 25.4 µM in assay [9] and 21.7 µM in assay [10].
Turning to `CCC(=O)NCC1CCCN2CCCCC12` (stereo not given), the TGI in [1], in assay [3], in assay [4], in [5], in assay [6] and in assay [8] was greater than 100 µM throughout. Also, the TGI in assay [9] and in assay [10] was greater than 100 µM in each case.
As for `N#CC(Cc1ccccc1)N(CCC1=CCCCC1)C(c1ccccc1)c1ccccc1` (stereo not given), the TGI in assay [1], in [2], in assay [4], in [5], in [6] and in [7] was greater than 100 µM throughout. Further, the TGI in assay [8], in [9] and in assay [10] was greater than 100 µM in each case.
Turning to `CCN(CC)CCNC(=O)c1cc2cc(NC(=O)c3cc4cc([N+](=O)[O-])ccc4[nH]3)ccc2[nH]1`, the TGI was greater than 58 µM in assay [1]; greater than 100 µM in assay [2]; greater than 100 µM in [3]; 66.8 µM in assay [4]; greater than 82.7 µM in [5]; greater than 100 µM in assay [6]. The results for the TGI in assay [7], in [8] and in assay [9] were greater than 100 µM, 71.4 µM and greater than 100 µM, respectively.
As to `O=[N+]([O-])c1ccc2[nH]nc(OCc3ccccc3Cl)c2c1`, the TGI in [2], in [3], in assay [4], in assay [5], in [6] and in assay [7] was greater than 100 µM throughout. The TGI in assay [8] is 31.9 µM; in [9], greater than 100 µM; in assay [10] it was greater than 100 µM.
On to `Cc1cccc(Cn2c3c(c4cc(O)ccc42)C(=O)c2ccccc2C3=O)c1`, for which the TGI was greater than 100 µM in assay [1]; 40.9 µM in assay [2]; greater than 100 µM in [3]; greater than 100 µM in assay [4]; greater than 100 µM in assay [5]; 38.4 µM in assay [6]. Besides, the TGI in assay [8] was greater than 29.9 µM; in [9] it was greater than 100 µM; in [10] it was 88.3 µM.
On to `O=C1c2cc3c(cc2-c2c1c1ccc(F)cc1c(=O)n2C[C@H](O)[C@@H](O)[C@H](O)CO)OCO3`, for which the GI50 – broadly, the concentration giving 50% growth inhibition – was 0.0324 µM in [2]; 0.0299 µM in assay [3]; 0.195 µM in assay [4]; 0.12 µM in [5]; 0.205 µM in assay [6]; 0.222 µM in assay [7]. For the same compound, the GI50 in assay [8] was 0.0324 µM; in assay [9], 0.183 µM. For the same compound, the TGI in assay [2] was 0.27 µM; in [3] it was 0.137 µM; in [4], 0.765 µM; in [5], 0.262 µM; in assay [6] it was greater than 100 µM; in assay [7], 0.782 µM. Moreover, the results for the TGI in assay [8] and in [9] were 0.22 µM and 0.766 µM, respectively.
Turning to `C[C@]12CC[C@H](O)CC1=CC[C@@H]1[C@@H]2CC[C@]2(C)C(=N/N)/C(=N\O)C[C@@H]12`, the TGI was greater than 100 µM in [1]; greater than 100 µM in assay [2]; greater than 100 µM in [3]; 30.8 µM in [5]; greater than 100 µM in assay [6]; greater than 100 µM in [7]. Moreover, the TGI in assay [8] was greater than 100 µM; in [9], greater than 100 µM; in assay [10], 43.4 µM.
For the compound `COC(=O)C1CC(C=[N+](C)C)=C(SC)N1C(=O)OCc1ccccc1` (stereo not given), the total growth inhibition concentration (TGI) in [1], in assay [2], in assay [4], in [5], in assay [6] and in [7] was greater than 100 µM in each case. Besides, the TGI in [8], in assay [9] and in assay [10] was greater than 100 µM each time.
For `O=C(N/N=C/c1ccc(Cl)cc1)c1c(Cl)c(Cl)c(Cl)c(Cl)c1-c1nc2ccccc2[nH]1`, the TGI in assay [1], in assay [2], in [3], in assay [4], in assay [5] and in [6] was greater than 100 µM each time. Moreover, the TGI in assay [7], in [8] and in [9] was greater than 100 µM each time.
For the compound `COc1cccc(Nc2nc(-c3cccs3)nc3cc(OC)c(OC)cc23)c1`, the TGI in assay [1] was 52.4 µM; in [2], 62.7 µM; in assay [4] it was greater than 100 µM; in assay [5], 48.5 µM; in assay [6], 92.7 µM; in [7], greater than 100 µM. The values for the TGI in assay [8], in assay [9] and in assay [10] were greater than 100 µM, 49.3 µM and 61.8 µM, respectively.
For the compound `COc1nncc2[nH]c(-c3ccccc3)cc12`, the TGI in assay [1], in assay [2], in assay [3], in assay [5], in assay [6] and in assay [7] was greater than 100 µM throughout. For the same compound, the TGI in [8], in assay [9] and in assay [10] was greater than 100 µM in each case.
With `CN(C)CCNS(=O)(=O)c1ccc(N)cc1`, the TGI is greater than 100 µM in assay [1]; 32.4 µM in [2]; greater than 100 µM in assay [4]; greater than 100 µM in [5]; 34 µM in [6]; greater than 100 µM in assay [7]. Further, the TGI in assay [8], in assay [9] and in assay [10] was greater than 100 µM throughout.
For the compound `COP(=O)(OC)C1=c2c(C)noc2=C2C=COC2C1=O` (stereo not given), the TGI in assay [1], in assay [2], in assay [3], in [5], in [6] and in assay [7] was greater than 100 µM each time. In addition, the TGI in assay [8], in assay [9] and in assay [10] was greater than 100 µM throughout.
